From patent publication US10407400B2, “Compounds, compositions, and methods for modulating sweet taste” (Chromocell Corporation, priority 2015, dated 2019) come the findings set out here.

The test system of this test is perception of sweet taste of High Fructose Corn Syrup (HFCS). Nature of the test: Two-alternative forced choice (2AFC) sip and spit sensory test of perceived sweetness in Lemon Lime beverage. Type of test: in vivo, humans. The conditions noted are these: Lemon Lime beverage pH 3.1. The procedure: Effect of Test Compounds on the Perception of Sweet Taste of High Fructose Corn Syrup (HFCS) Two-alternative Forced Choice Method (2AFC). The effect of the test compounds and combinations of test compounds on the perception of the sweet taste of a flavored beverage (referred to as Lemon Lime henceforth) of sweetener in humans was evaluated using a two-alternative forced choice “sip and spit” method (2AFC). The Lemon Lime solutions were prepared by adding sucrose equivalent (SE) quantities of high fructose corn syrup (HFCS) (by weight), to water to achieve the desired concentration. The lemon lime pH is 3.1. Compounds were first prepared as a 500-fold concentrated stock solution in 100% ethanol. These concentrated stocks were then added to the aqueous sweetener solutions to result in a final ethanol concentration of 0.2%. […] In this manner, compounds were not assessed simply for an increase in perceived sweetness, but a significant increase in perceived sweetness above the positive control. […] Data were analyzed using binomial probabilities. Approximate levels of sweetness enhancement in column 5 of Table 1 were calculated as follows: Approximate levels of sweetness enhancement=Sweetener concentration of positive control surpassed by the test sample, divided by sweetener concentration for compound-containing sample (e.g. 1.5×=7.5brix HFCS/5brix HFCS).

Each structure is given as a SMILES string.

`COc1cc(C2CC(=O)Oc3cc(C)cc(O)c32)ccc1O` (racemic) [Compound 1, 5-hydroxy-4-(4-hydroxy-3-methoxyphenyl)-7-methylchroman-2-one]: the “Fold increase in perceived sweetness” value (positive control 10brix HFCS surpassed, divided by test sample 7.14brix HFCS, compound concentration 25 ppm (1) or 41.25 ppm (1 & 4)) is listed as over 1.4X. Further, the “Compound concentration with positive 2AFC results” value (test sample 7.14brix HFCS with compound surpassed positive control 10brix HFCS, taste panelists n≥15, 0.2% ethanol) is 25 ppm.
